Data taken from patent publication US20220267268A1, “NEW TRICYCLIC 5-HT2 ANTAGONISTS” (Anamar AB, priority 2019, published 2022).
Where a name gives a salt, the structure may show the parent alone. Marks after values point to notes of the source that are not given here.

How the values were obtained:
[1] = target: T1, 5-HT2B receptor (Homo sapiens, UniProt P41595); experiment: 5-HT2B receptor binding, ligand displacement assay with 3H-LSD radioligand; details: human receptor in CHO-K1; for inhibition at 0.001 µM: 1 nM compound; for inhibition at 0.01 µM: 10 nM compound; for inhibition at 0.1 µM: 100 nM compound
T1 construct: host or cells: CHO-K1
Experimental: (§1) 5-HT2B receptor binding (performed at Eurofins Panlabs Taiwan, Ltd.) to human receptor protein expressed in CHO-K1 cells was determined in a ligand displacement assay using ^3H-lysergic acid diethylamide (LSD) as radioligand and ketanserine as a standard reference compound, or alternatively*, with ^3H-mesulergine and SB 206553 as reference. Data is presented as % displacement of radioligand at indicated compound concentrations, see Table 1.

[2] = target: T1, 5-HT2B receptor; experiment: 5-HT2B receptor binding, ligand displacement assay, alternative (*) with 3H-mesulergine; details: * 3H-mesulergine radioligand, SB 206553 reference; for 5-HT2B receptor binding (% displacement) 1 nM: 1 nM compound; for inhibition at 0.01 µM: 10 nM compound; for 5-HT2B receptor binding (% displacement) 100 nM: 100 nM compound
Experimental: as §1

T1 sequence (P41595 whole entry): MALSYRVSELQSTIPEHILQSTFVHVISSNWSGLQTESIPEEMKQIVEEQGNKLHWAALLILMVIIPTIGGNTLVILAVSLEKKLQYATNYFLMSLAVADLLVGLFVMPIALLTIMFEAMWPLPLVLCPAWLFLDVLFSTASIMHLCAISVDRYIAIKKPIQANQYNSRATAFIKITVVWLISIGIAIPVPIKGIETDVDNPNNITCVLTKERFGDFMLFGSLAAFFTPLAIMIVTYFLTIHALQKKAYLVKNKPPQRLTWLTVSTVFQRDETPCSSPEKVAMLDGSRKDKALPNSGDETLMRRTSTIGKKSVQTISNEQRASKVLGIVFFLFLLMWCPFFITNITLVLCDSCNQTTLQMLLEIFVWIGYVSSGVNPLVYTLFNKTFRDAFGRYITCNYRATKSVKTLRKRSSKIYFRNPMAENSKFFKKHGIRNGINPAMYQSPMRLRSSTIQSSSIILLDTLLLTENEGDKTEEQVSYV

Structure (SMILES)	5-HT2B receptor binding (% displacement) 1 nM [2]	inhibition at 0.01 µM [2]	5-HT2B receptor binding (% displacement) 100 nM [2]	inhibition at 0.001 µM [1]	inhibition at 0.01 µM [1]	inhibition at 0.1 µM [1]
CC1CN(C(=N)N)c2cc(F)c3c(Cl)cccc3c21 (centres unmarked) [Example 45, 6-Chloro-5-fluoro-1-methyl-1,2-dihydro-3H-benzo[e]indole-3-carboximidamide hydrochloride]				77%	100%	98%
CCCc1cccc2c3c(ccc12)N(C(=N)N)CC3C (centres unmarked) [Example 43, 1-Methyl-6-propyl-1,2-dihydro-3H-benzo[e]indole-3-carboximidamide hydrochloride]				21%	70%	96%
CC1CN(C(=N)NCc2ccc(F)c(F)c2)c2ccc3ccccc3c21 (centres unmarked) [Example 10, N-(3,4-Difluorobenzyl)-1-methyl-1,2-dihydro-3H-benzo[e]indole-3-carboximidamide hydrochloride]				7%	50%	91%
CC1CN(C(=N)N)c2ccc3c(-c4ccccc4)cccc3c21 (centres unmarked) [Example 41, 1-Methyl-6-phenyl-1,2-dihydro-3H-benzo[e]indole-3-carboximidamide hydrochloride]				0%	7%	40%
CC1CN(C(=N)NCc2ccc(Cl)cc2)c2ccc3ccccc3c21 (centres unmarked) [Example 9, N-(4-Chlorobenzyl)-1-methyl-1,2-dihydro-3H-benzo[e]indole-3-carboximidamide hydrochloride]				26%	55%	95%
CC1CN(C(=N)N)c2ncc3ccccc3c21 (centres unmarked) [Example 4, 1-Methyl-1,2-dihydro-3H-pyrrolo[2,3-c]isoquinoline-3-carboximidamide hydrochloride]				-1%	16%	64%
CC1CN(C(=N)N)c2ccc3c(C4CC4)cccc3c21 (centres unmarked) [Example 42, 6-Cyclopropyl-1-methyl-1,2-dihydro-3H-benzo[e]indole-3-carboximidamide hydrochloride]				1%	56%	96%
COc1cc2c(c3ccccc13)C(C)CN2C(=N)N (centres unmarked) [Example 44, 5-Methoxy-1-methyl-1,2-dihydro-3H-benzo[e]indole-3-carboximidamide hydrochloride]				9%	13%	70%
CC1CN(C(=N)N)c2cnc3ccccc3c21 (centres unmarked) [Example 5, 1-Methyl-1,2-dihydro-3H-pyrrolo[2,3-c]quinoline-3-carboximidamide hydrochloride]				11%	28%	71%
CC1CN(C(=N)NCC(F)(F)F)c2ccc3c(Br)cccc3c21 (centres unmarked) [Example 22, 6-Bromo-1-methyl-N-(2,2,2-trifluoroethyl)-1,2-dihydro-3H-benzo[e]indole-3-carboximidamide 2,2,2-trifluoroacetic acid salt]					95%	
CCCCNC(=N)N1CC(C)c2c1ccc1ccccc21 (centres unmarked) [Example 7, N-Butyl-1-methyl-1,2-dihydro-3H-benzo[e]indole-3-carboximidamide hydrochloride]				32%	77%	96%
CCCCNC(=N)N1CC(C)c2c1ccc1c(Br)cccc21 (centres unmarked) [Example 15, 6-Bromo-N-butyl-1-methyl-1,2-dihydro-3H-benzo[e]indole-3-carboximidamide 2,2,2-trifluoroacetic acid salt]					103%	
CC1CN(C(=N)NCc2ccc(F)cc2)c2ccc3c(Br)cccc3c21 (centres unmarked) [Example 26, 6-Bromo-N-(4-fluorobenzyl)-1-methyl-1,2-dihydro-3H-benzo[e]indole-3-carboximidamide 2,2,2-trifluoroacetic acid salt]				43%	90%	98%
C#CCNC(=N)N1CC(C)c2c1ccc1c(Br)cccc21 (centres unmarked) [Example 18, 6-Bromo-1-methyl-N-(prop-2-yn-1-yl)-1,2-dihydro-3H-benzo[e]indole-3-carboximidamide 2,2,2-trifluoroacetic acid salt]					104%	
CC1CN(C(=N)Nc2ccc(F)cc2)c2ccc3c(Br)cccc3c21 (centres unmarked) [Example 30, 6-Bromo-N-(4-fluorophenyl)-1-methyl-1,2-dihydro-3H-benzo[e]indole-3-carboximidamide 2,2,2-trifluoroacetic acid salt]					105%	
CC1CN(C(=N)NCc2ccccc2)c2ccc3ccccc3c21 (centres unmarked) [Example 8, N-Benzyl-1-methyl-1,2-dihydro-3H-benzo[e]indole-3-carboximidamide hydrochloride]				30%	80%	99%
CNC(=N)N1CC(C)c2c1ccc1ccccc21 (centres unmarked) [Example 6, N,1-Dimethyl-1,2-dihydro-3H-benzo[e]indole-3-carboximidamide hydrochloride]				18%	57%	93%
COCCNC(=N)N1CC(C)c2c1ccc1c(Br)cccc21 (centres unmarked) [Example 23, 6-Bromo-N-(2-methoxyethyl)-1-methyl-1,2-dihydro-3H-benzo[e]indole-3-carboximidamide 2,2,2-trifluoroacetic acid salt]					100%	

Second part, led by results:

5-HT2B receptor binding (% displacement) 1 nM [2]	inhibition at 0.01 µM [2]	5-HT2B receptor binding (% displacement) 100 nM [2]	Structure (SMILES)	inhibition at 0.001 µM [1]	inhibition at 0.01 µM [1]	inhibition at 0.1 µM [1]
4* %	7%	20* %	CC1CN(C(=N)N)c2ccc3c([S+](C)[O-])cccc3c21 (centres unmarked) [Example 38, 1-Methyl-6-(methylsulfinyl)-1,2-dihydro-3H-benzo[e]indole-3-carboximidamide 2,2,2-trifluoroacetic acid salt]			
6* %	8%	28* %	CC1CN(C(=N)N)c2ccc3c(S(C)(=O)=O)cccc3c21 (centres unmarked) [Example 39, 1-Methyl-6-(methylsulfonyl)-1,2-dihydro-3H-benzo[e]indole-3-carboximidamide 2,2,2-trifluoroacetic acid salt]			
26* %	64%	94* %	C#Cc1cccc2c3c(ccc12)N(C(=N)N)CC3C (centres unmarked) [Example 40, 6-Ethynyl-1-methyl-1,2-dihydro-3H-benzo[e]indole-3-carboximidamide 2,2,2-trifluoroacetic acid salt]			
30* %	88%	102* %	CC1CN(C(=N)N)c2ccc3c(I)cccc3c21 (centres unmarked) [Example 34, 6-Iodo-1-methyl-1,2-dihydro-3H-benzo[e]indole-3-carboximidamide 2,2,2-trifluoroacetic acid salt]			
10* %	48%	90* %	COc1cccc2c3c(ccc12)N(C(=N)N)CC3C (centres unmarked) [Example 36, 6-Methoxy-1-methyl-1,2-dihydro-3H-benzo[e]indole-3-carboximidamide 2,2,2-trifluoroacetic acid salt]			
5* %	53%	94* %	CSc1cccc2c3c(ccc12)N(C(=N)N)CC3C (centres unmarked) [Example 37, 1-Methyl-6-(methylthio)-1,2-dihydro-3H-benzo[e]indole-3-carboximidamide 2,2,2-trifluoroacetic acid salt]			
